Experimental data: patent US7067521B2, “1-[alkyl], 1-[(heteroaryl)alkyl] and 1-[(aryl)alkyl]-7pyridinyl-imidazo[1,2-alpha]pyrimidin-5(1H)-one derivatives” (sanofi-aventis, priority 2000, dated 2006)
Where a name gives a salt, the structure may show the parent alone.

SMILES | melting point
O=c1cc(-c2ccncc2)nc2n(CCCCc3ccccc3)ccn12 (as salt: hydrochloride) [Compound 14, 1-[4-(phenyl)butyl]-7-pyridin-4-ylimidazo[1,2-a]pyrimidin-5(1H)-one] | 206 to 208 °C
O=c1cc(-c2cccnc2)nc2n(CCCc3ccccc3)ccn12 (as salt: hydrochloride) [Compound 15, 1-[3-(phenyl)propyl]-7-pyridin-3-ylimidazo[1,2-a]pyrimidin-5(1H)-one] | 184 to 185 °C
O=C(CCn1ccn2c(=O)cc(-c3ccncc3)nc12)c1ccccc1 (as salt: hydrochloride) [Compound 23, 1-(3-phenyl-3-oxo-propyl)-7-pyridin-4-ylimidazo[1,2-a]pyrimidin-5(1H)-one] | 208 to 211 °C

The remaining lines, values ahead:

melting point | SMILES
220 to 222 °C | O=c1cc(-c2ccncc2)nc2n(CC[C@H](O)C(F)(F)F)ccn12 [Compound 17, (S)-1-(4,4,4-trifluoro-3-hydroxybutyl)-7-pyridin-4-ylimidazo[1,2-a]pyrimidin-5(1H)-one]
187 to 188 °C | O=c1cc(-c2ccncc2)nc2n(CC=CC(F)(F)F)ccn12 [Compound 18, 1-(4,4,4-trifluorobut-2-enyl)-7-pyridin-4-ylimidazo[1,2-a]pyrimidin-5(1H)-one]
221 to 222 °C | O=c1cc(-c2ccncc2)nc2n(C=CCC(F)(F)F)ccn12 [Compound 20, 1-(4,4,4-trifluorobut-1-enyl)-7-pyridin-4-ylimidazo[1,2-a]pyrimidin-5(1H)-one]
